Consider five compounds from patent US20250092418A1, “METHODS OF GENETICALLY ALTERING A PLANT NIN-GENE TO BE RESPONSIVE TO AUXIN” (NIAB, priority 2023, published 2025).

SMILES strings stand for the structures.

One experiment concerns pDR5:NLS-eGFP. The experiment can be described thus: pDR5:NLS-eGFP expression in barley STARTS lines post auxin treatment. It counts as in vivo, Hordeum vulgare. Conditions: 50 μM 2,4D. The protocol: Tissue culture STARTS plants were grown in rooting media for approximately 4 weeks after transfer, and barley seeds were grown on water-agar plates for seven days after germination, after which seedlings were transferred to 1% Hoagland's media plates. […] The root portion of the plates was covered with aluminum foil. The plants were maintained under a 16 h-day and 8 h-night cycle at 24-22° C. Tissue was harvested four weeks after treatment for phenotyping and RNA extraction.
Auxin treatment was reported to induce nodule like-structures (NLS) in rice (Hiltenbrand et al., 2016). Since it was established in the strawberry system that expressing pDR5:DryasNIN could form NLS with some proto-nodule identity under the influence of auxin, lines in barley (Hordeum vulgare var Golden promise) were raised with the same cassette. To establish the efficacy of the pDR5 promoter in barely system, some transgenics were also raised with pDR5:GUS and pDR5:NLS-eGFP (FIGS. 23A-23F, 24A-24J). In comparison to overexpressing pOsUbi:GUS, pDR5:GUS expression under control condition was very weak (FIGS. 23B-23C).

The next experiment concerns MtNIN. The experiment can be described thus: Relative expression of MtNIN in M. truncatula roots after auxin analogue treatment. The note with it: exogenous treatment 0.1, 1 or 10 μM for 16 hours and 2 days. It counts as in vivo, Medicago truncatula. Here is the method:
Germinated seedlings (approx. 4 days after germination) are moved to FPmod plates supplemented with 0.1 μM, 1 μM, or 10 μM NAA, 0.8% agarose (Sigma), and adjusted to pH 7. The seedlings were maintained for 16 hours and 2 days under 16 h-day and 8 h-night cycle at 24-22° C. before harvesting them for RNA extraction.
Total RNA was reverse-transcribed using SuperScript™ III Reverse Transcriptase (Life Technologies) and anchored dT17 primers as described in the manufacturer's protocol. About 1 μl of cDNA was used to set up real-time RT-qPCR in a […] reaction system with 2×SYBR™ Green PCR master mixes (PCR biosystems) using an ABI Proflex7 Real-Time PCR system. PCR program: 1 cycle at 50° C. for 2 min, 1 cycle at 95° C. for 5 min, and 40 cycles at 95° C. for 30 s and 60° C. for 30s. Expression data were obtained from 3 independent biological repetitions. Calculations were done using the cycle threshold method using MtEF1a, DgActin and FvHistoneH4 as the endogenous control.

A further experiment has as its system pDgNIN2:GUS. Description: GUS staining of pDgNIN2:GUS hairy roots after treatment with LCO / chitin oligomer signaling molecules. Conditions: 24 hours post treatment with 10^−7M. In kind it is in vivo, Datisca glomerata. Here is the method: (§1) For GUS staining the harvested roots were thoroughly cleaned in sterile water and scored under the stereo-fluorescent microscope so that only the transformed roots were harvested for the staining purpose. The roots were fixed in 90% acetone on ice for 1 hour. Subsequently, the acetone was replaced with 50 mM phosphate buffer pH7.2 (Sigma) and the roots were washed twice to remove any acetone. The roots were then moved to the staining solution containing 0.1M Phosphate buffer, 0.25 mM K3[Fe(CN)6](potassium ferricyanide), 0.25 mM K4[Fe(CN)6](potassium ferrocyanide), 0.25% (v/v) Triton X-100 and 1 mM 5-bromo-4-chloro-3-indolyl beta-D-glucuronide (X-Gluc, Thermo). The samples were vacuum infiltrated for 30 minutes and incubated at 37° C. overnight. After staining the tissues were cleared of all the staining solution and stored in 50% ethanol for imaging under the stereomicroscope DX105 F (Leica). For ruthenium red staining the staining solution was prepared (0.1% ruthenium red in sterile water) and a few microliters are added over each section and subsequently washed using sterile deionized water. For toluidine blue staining, 0.1% toluidine blue staining solution was prepared in deionized water and a few microliters are added over each section and subsequently washed using sterile deionized water. […]

Another experiment deals with pDgNIN:GUS. Description: GUS staining of pDgNIN:GUS hairy roots after treatment with LCO / chitin oligomer signaling molecules. The note with it: 24 hours post treatment with 10^−7M. In kind it is in vivo, Datisca glomerata. Here is the method:
as §1

The subject of a further experiment is DgNIN. The experiment can be described thus: Relative expression of DgNIN in D. glomerata roots (real-time PCR, normalized to DgActin). It counts as in vivo, Datisca glomerata. Conditions: 10 days post treatment with 100^−6M NAA. The protocol: (§2) Germinated seedlings (approx. 4 weeks after germination) are moved to ½MS plates supplemented with 0.5 g/L MES (Merck), 100^−6M NAA, 0.8% agarose (Sigma) and adjusted to pH 5.8. The seedlings were maintained for 10 days under a 16 h-day and 8 h-night cycle at 22-24° C. before harvesting for RNA extraction.
(§3) Each plant root system consisting of transformed root or nodules was harvested and each individual root system formed a biological replicate; 3 or more technical replicates were prepared from each root system having a 100-150 mg sample. RNA was extracted using a modified extraction buffer containing 2% SDS (v/v), 100 mM Tris-HCl pH 8.0, 1.4M NaCl, and 20 mM EDTA. The samples were crushed with tungsten-carbide beads (Qiagen) in a mechanical pulverize (Spex Geno/Grinder®) in the presence of 12 μl/ml β-mercaptoethanol (Sigma) and 50 mg PVPP (Sigma). The powder was resuspended with the extraction buffer followed by treatment with chloroform:iso-amyl alcohol (24:1)(Melford) and chloroform (Sigma). […] The extracted RNA was quantified using a NanoDrop® (Thermo) and then treated for DNase digestion using TURBO DNA-free™ kit (Thermo) using the manufacturer protocol. […] Quantitative real-time polymerase chain reaction (qRT-PCR) was performed in technical replicates using SyGreen mix Lo-ROX (PCR Biosystems) using QuantStudio™ 7 Flex system (ABI) in a total volume of 10 μl. […]
Background: Quantitative PCR measures a nucleic acid by following its amplification.

Experiment [1] concerns pDR5:GUS. Description: pDR5:GUS auxin signaling readout in stable F. vesca lines. In kind it is in vivo, Fragaria vesca. Also noted: dose or concentration left out as unconfirmed. Here is the method:
Tissue culture plants growing in SMR (approximately 4 weeks after transfer) were moved to ½ Hoagland's media plates supplemented with 100^−6M NAA, 0.8% agarose (Sigma). The plants were maintained for 4 weeks under a 16 h-day and 8 h-night cycle at 22-24° C. before harvesting for phenotyping and RNA extraction.
as §1, with “(Leica).” for “(Leica). For ruthenium red staining the staining solution was prepared (0.1% ruthenium red in sterile water) and a few microliters are added over each section and subsequently washed using sterile deionized water. For toluidine blue staining, 0.1% toluidine blue staining solution was prepared in deionized water and a few microliters are added over each section and subsequently washed using sterile deionized water.”

In experiment [2] the test system is pDR5:GUS. The experiment can be described thus: pDR5:GUS expression in barley STARTS lines post auxin treatment. It counts as in vivo, Hordeum vulgare. Conditions: 100 μM NAA, 3 weeks post treatment. The protocol:
as §1

The subject of the next experiment is DgNIN2. Description: Relative expression of DgNIN2 in D. glomerata roots (real-time PCR, normalized to DgActin). In kind it is in vivo, Datisca glomerata. The note with it: 10 days post treatment with 100^−6M NAA. Here is the method:
as §2, §3

Take `O=C(O)COc1ccc(Cl)cc1Cl` [2,4D, 2,4-Dichlorophenoxyacetic acid]: in the experiment with pDR5:NLS-eGFP, the “pDR5:NLS-eGFP signal” value is “eGFP localization could be seen in the nucleus”. Further, the “activation of MtNIN expression” value in the experiment on MtNIN was “differential activation of MtNIN expression”.
In the case of `CC(=O)N[C@H]1[C@H](O[C@H]2[C@H](O)[C@@H](NC(C)=O)C(O)O[C@@H]2CO)O[C@H](CO)[C@@H](O[C@@H]2O[C@H](CO)[C@@H](O[C@@H]3O[C@H](CO)[C@@H](O)[C@H](O)[C@H]3NC(C)=O)[C@H](O)[C@H]2NC(C)=O)[C@@H]1O` (stereo partly shown) [C04], the “GUS staining of pDgNIN2:GUS roots” value in the experiment on pDgNIN2:GUS is “did not show staining”. The “GUS staining of pDgNIN:GUS roots” value in the experiment with pDgNIN:GUS is “intense staining in the root vasculature and near the root tip”.
Turning to `CC(=O)N[C@H]1[C@H](O[C@H]2[C@H](O)[C@@H](NC(C)=O)[C@H](O[C@H]3[C@H](O)[C@@H](NC(C)=O)[C@H](O[C@H]4[C@H](O)[C@@H](NC(C)=O)C(O)O[C@@H]4CO)O[C@@H]3CO)O[C@@H]2CO)O[C@H](CO)[C@@H](O[C@@H]2O[C@H](CO)[C@@H](O[C@@H]3O[C@H](CO)[C@@H](O[C@@H]4O[C@H](CO)[C@@H](O[C@@H]5O[C@H](CO)[C@@H](O)[C@H](O)[C@H]5NC(C)=O)[C@H](O)[C@H]4NC(C)=O)[C@H](O)[C@H]3NC(C)=O)[C@H](O)[C@H]2NC(C)=O)[C@@H]1O` (stereo partly shown) [C08], the “GUS staining of pDgNIN2:GUS roots” value with pDgNIN2:GUS was “failed to induce any NIN expression”. The “GUS staining of pDgNIN:GUS roots” value with pDgNIN:GUS was “no staining”.
As for `O=C(O)CCCc1c[nH]c2ccccc12` [IBA, Indole-3-butyric acid], in the experiment on MtNIN, the “activation of MtNIN expression” value is “differential activation of MtNIN expression”.
Turning to `O=C(O)Cc1cccc2ccccc12` [NAA, 1-naphthalene acetic acid], the “increase in the expression of DgNIN as compared to the control treated root samples” value in the experiment on DgNIN is on record as roughly 4 fold. The results for the “pDR5:GUS staining pattern” value with pDR5:GUS [1] (+N+P+NAA) and in the experiment with pDR5:GUS [1] (−N+P+NAA (N limiting condition)) were “non-specific expression throughout the root system” and “localized GUS staining in the bump like structures”, respectively. The “pDR5:GUS staining” value with pDR5:GUS [2] is on record as “GUS staining was visible in the bump-like structures”. Further, the “increase in the expression of DgNIN2 as compared to the control treated root samples” value in the experiment on DgNIN2 is roughly 12 fold. In addition, the “activation of MtNIN expression” value in the experiment on MtNIN is “differential activation of MtNIN expression”.
